Results taken from patent US20240415819A1, “MACROCYCLIC COMPOUNDS AS PROTEASOME SUBUNIT BETA TYPE-5 INHIBITORS” (Lead Discovery Center GmbH, priority 2021, published 2024).

How the values were obtained:
[1] = target: T1, β5 subunit of the human constitutive proteasome (CPS) (Homo sapiens, UniProt P28074); assay: β5 inhibition assay, human constitutive proteasome (Suc-LLVY-AMC); type: biochemical; conditions: IC50 class, Suc-LLVY-AMC substrate
T1 construct: purchased Boston Biochem E-360
Experimental: The enzymatic activity of the β5 subunit of the human constitutive proteasome (CPS) is analyzed. In another assay, which differs from the assay of the human constitutive proteasome only in using the human immunoproteasome (IPS) the enzymatic activity of the β5 subunit of the human immunoproteasome (IPS) is analyzed. […] Inhibition is indicated as IC50 [nM] (“-”=not measured).

[2] = target: T2, β5 subunit of the human immunoproteasome (IPS) (Homo sapiens, UniProt P28062); assay: β5 inhibition assay, human immunoproteasome (Suc-LLVY-AMC); type: biochemical; conditions: IC50 class, Suc-LLVY-AMC substrate
T2 construct: purchased Boston Biochem E-370
Summary of the method: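 Human immunoproteasome (1 nM final) was preincubated 10 min at RT with compound in 100 mM HEPES pH 7.5, 50 mM NaCl, 0.02% SDS, 1 mM DTT. Suc-LLVY-AMC (22.6 μM final) was then added for 4 h at RT in the dark. After stopping with 1 μM bortezomib, AMC fluorescence was read (ex 355/em 460 nm).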

[3] = test system: A549 (human lung carcinoma cell line); assay: Glo assay of A549 cells (Table 3; ProteasomeGlo plating scheme); type: cell-based; conditions: Homo sapiens; A549 cells; read-out: PGLo A549
Summary of the method: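 Compound treatment lasts 105 minutes at 37° C. under 5% CO2. Suc-LLVY-Glo substrate premixed with detection reagent (60 min at room temperature) is then added directly to the cells, and luminescence after 10-15 min in the dark gives the IC50 in nM.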

[4] = test system: Hs 746T (human gastric carcinoma cell line); assay: 48 hr CTG viability assay, Hs 746T; type: cell-based; conditions: Hs746T, 48 hr CTG, read-out: Hs 746T IC50
Experimental: (§1) A viability assay was conducted for 48 hours to evaluate the inhibition of cancer cell growth by proteasome inhibitors. Briefly, the candidate cell line was plated with a 96-well plate following density of cells, respectively. 6×10^3 Cells/well for A2780 (human ovarian cancer cell line) and MDA-MB-468 (breast carcinoma), 8×10^3 Cells/well for Hs746T (human gastric carcinoma cell line), 1.1×10^4 Cells/well for MM1 S and RPMI 8226 (multiple myeloma). After 24 hours, the cells were treated with various concentrations of the compound (ranging from 0.0015 uM to 10 uM). […] After 48 hours of incubation at 37° C., 5% CO2 incubator, cells were analyzed for viability using the CellTiter-Glo Luminescent Cell Viability assay (Promega, Cat #G7570). All viability assays were performed in duplicate and Luminescence was read using an Envision (Perkin Elmer, USA). Data were analyzed using XLfit software. […] (human gastric carcinoma cell line), MM1 S (B lymphoblast cell line), and RPMI 8226 (B lymphocyte cell line, multiple myeloma). Inhibition is indicated as IC50 [nM] (“-”=not measured).

[5] = test system: MM1 S (B lymphoblast cell line); assay: 48 hr CTG viability assay, MM1S; type: cell-based; conditions: Homo sapiens, 48 hr CTG, read-out: MM1S IC50
Experimental: as §1

[6] = test system: RPMI 8226 (B lymphocyte cell line, multiple myeloma); assay: 48 hr CTG viability assay, RPMI 8226; type: cell-based; conditions: Homo sapiens, RPMI-8226; 48 hr CTG; read-out: RPMI-8226 IC50
Experimental: as §1

| IC50 [1] [nM] | IC50 [2] [nM] | IC50 [3] [nM] | IC50 [4] [nM] | IC50 [5] [nM] | IC50 [6] [nM] | SMILES |
| --- | --- | --- | --- | --- | --- | --- |
| < 100 | < 100 | < 100 | < 100 | < 100 | < 100 | Cc1ccc2cc1CNC(=O)[C@H](CCc1ccccc1)NC(=O)[C@@H](NC(=O)CCN1CC3(COC3)C1)CC(=O)N1CCCC(CCO2)C1 (stereo partly drawn) [Compound 660, N-((9S,12S)-5^4-methyl-8,11,14-trioxo-9-phenethyl-4-oxa-7,10-diaza-1(3,1)-piperidina-5(1,3)-benzenacyclotetradecaphane-12-yl)-3-(2-oxa-6-azaspiro[3.3]heptan-6-yl)propanamide] |
| < 100 | < 100 | < 100 | < 100 | < 100 | < 100 | Cc1ccc2cc1CNC(=O)[C@H](CCc1ccccc1)NC(=O)[C@@H](NC(=O)CCN1CCC3(CCCCC3)CC1)CC(=O)N1CCCC(CCO2)C1 (stereo partly drawn) [Compound 608, N-((9S,12S)-5^4-methyl-8,11,14-trioxo-9-phenethyl-4-oxa-7,10-diaza-1(3,1)-piperidina-5(1,3)-benzenacyclotetradecaphane-12-yl)-3-(3-azaspiro[5.5]undecan-3-yl)propanamide] |
| < 100 | < 100 | < 100 | < 100 | < 100 | < 100 | Cc1ccc2cc1CNC(=O)[C@H](CCc1ccccc1)NC(=O)[C@@H](NC(=O)CCOC1CCCC1)CC(=O)N1CCCC(CCO2)C1 (stereo partly drawn) [Compound 629, 3-(cyclopentyloxy)-N-((9S,12S)-5^4-methyl-8,11,14-trioxo-9-phenethyl-4-oxa-7,10-diaza-1(3,1)-piperidina-5(1,3)-benzenacyclotetradecaphane-12-yl)propanamide] |
| < 100 | < 100 | < 100 | < 100 | < 100 | < 100 | Cc1ccc2cc1CNC(=O)[C@H](CCc1ccccc1)NC(=O)[C@@H](NC(=O)CCN1CCC3(CCCC3)C1)CC(=O)N1CCCC(CCO2)C1 (stereo partly drawn) [Compound 652, N-((9S,12S)-5^4-methyl-8,11,14-trioxo-9-phenethyl-4-oxa-7,10-diaza-1(3,1)-piperidina-5(1,3)-benzenacyclotetradecaphane-12-yl)-3-(2-azaspiro[4.4]nonan-2-yl)propanamide] |
| < 100 | < 100 | < 100 | < 100 | < 100 | < 100 | Cc1ccc2cc1CNC(=O)[C@H](CCc1ccccc1)NC(=O)[C@@H](NC(=O)CCNC1CC3(CCC3)C1)CC(=O)N1CCCC(CCO2)C1 (stereo partly drawn) [Compound 657, N-((9S,12S)-5^4-methyl-8,11,14-trioxo-9-phenethyl-4-oxa-7,10-diaza-1(3,1)-piperidina-5(1,3)-benzenacyclotetradecaphane-12-yl)-3-(spiro[3.3]heptan-2-ylamino)propanamide] |

Further lines, the compound ahead of its results:

| SMILES | IC50 [1] [nM] | IC50 [2] [nM] | IC50 [3] [nM] | IC50 [4] [nM] | IC50 [5] [nM] | IC50 [6] [nM] |
| --- | --- | --- | --- | --- | --- | --- |
| Cc1ccc2cc1CNC(=O)[C@H](CCc1ccccc1)NC(=O)[C@@H](NC(=O)CCOCCC1CCCC1)CC(=O)N1CCCC(CCO2)C1 (stereo partly drawn) [Compound 623, 3-(2-cyclopentylethoxy)-N-((9S,12S)-5^4-methyl-8,11,14-trioxo-9-phenethyl-4-oxa-7,10-diaza-1(3,1)-piperidina-5(1,3)-benzenacyclotetradecaphane-12-yl)propanamide] | < 100 | < 100 | < 100 | < 100 | < 100 | < 100 |
| Cc1ccc2cc1CNC(=O)[C@H](CCc1ccccc1)NC(=O)[C@@H](NC(=O)CCOC1CC1)CC(=O)N1CCCC(CCO2)C1 (stereo partly drawn) [Compound 597, 3-cyclopropoxy-N-((9S,12S)-5^4-methyl-8,11,14-trioxo-9-phenethyl-4-oxa-7,10-diaza-1(3,1)-piperidina-5(1,3)-benzenacyclotetradecaphane-12-yl)propanamide] | < 100 | < 100 | < 100 | < 100 | < 100 | < 100 |
| Cc1ccc2cc1CNC(=O)[C@H](CCc1cccnc1)NC(=O)[C@@H](NC(=O)Cc1ccc(N)cc1C)CC(=O)N1CCCC(CCO2)C1 (stereo partly drawn) [Compound 645, 2-(4-amino-2-methylphenyl)-N-((9S,12S)-5^4-methyl-8,11,14-trioxo-9-(2-(pyridin-3-yl)ethyl)-4-oxa-7,10-diaza-1(3,1)-piperidina-5(1,3)-benzenacyclotetradecaphane-12-yl)acetamide] | < 100 | < 100 | < 100 | < 100 | < 100 | < 100 |
| Cc1ccc2cc1CNC(=O)[C@H](CCc1ccccc1)NC(=O)[C@@H](NC(=O)CCNCCC1CCC1)CC(=O)N1CCCC(CCO2)C1 (stereo partly drawn) [Compound 693, 3-((2-cyclobutylethyl)amino)-N-((9S,12S)-5^4-methyl-8,11,14-trioxo-9-phenethyl-4-oxa-7,10-diaza-1(3,1)-piperidina-5(1,3)-benzenacyclotetradecaphane-12-yl)propanamide] | < 100 | < 100 | < 100 | < 100 | < 100 | < 100 |
| Cc1ccc2cc1CNC(=O)[C@H](CCc1ccccc1)NC(=O)[C@@H](NC(=O)N1CCC(C)(O)CC1)CC(=O)N1CCCC(CCO2)C1 (stereo partly drawn) [Compound 676, 4-hydroxy-4-methyl-N-((9S,12S)-5^4-methyl-8,11,14-trioxo-9-phenethyl-4-oxa-7,10-diaza-1(3,1)-piperidina-5(1,3)-benzenacyclotetradecaphane-12-yl)piperidine-1-carboxamide] | < 100 | < 100 | < 100 | < 100 | < 100 | < 100 |
| Cc1ccc2cc1CNC(=O)[C@H](CCc1ccccc1)NC(=O)[C@@H](NC(=O)[C@@H](N)CC(=O)O)CC(=O)N1CCCC(CCO2)C1 (stereo partly drawn) [Compound 719, (3S)-3-amino-4-(((9S,12S)-5^4-methyl-8,11,14-trioxo-9-phenethyl-4-oxa-7,10-diaza-1(3,1)-piperidina-5(1,3)-benzenacyclotetradecaphane-12-yl)amino)-4-oxobutanoic acid] | < 100 | < 100 | < 100 | 500 to 1000 | 100 to 500 | 100 to 500 |
| Cc1ccc2cc1CNC(=O)[C@H](CCc1ccccc1)NC(=O)[C@@H](NCC(C)(C)CO)CC(=O)N1CCCC(CCO2)C1 (stereo partly drawn) [Compound 690, (9S,12S)-12-((3-hydroxy-2,2-dimethylpropyl)amino)-5^4-methyl-9-phenethyl-4-oxa-7,10-diaza-1(3,1)-piperidina-5(1,3)-benzenacyclotetradecaphane-8,11,14-trione] | < 100 | < 100 | < 100 | < 100 | < 100 | < 100 |
| Cc1ccc2cc1CNC(=O)[C@H](CCc1ccccc1)NC(=O)[C@@H](NC(=O)C1CC3(C1)CN(C)C3)CC(=O)N1CCCC(CCO2)C1 (stereo partly drawn) [Compound 714, 2-methyl-N-((9S,12S)-5^4-methyl-8,11,14-trioxo-9-phenethyl-4-oxa-7,10-diaza-1(3,1)-piperidina-5(1,3)-benzenacyclotetradecaphane-12-yl)-2-azaspiro[3.3]heptane-6-carboxamide] | < 100 | < 100 | < 100 | 100 to 500 | 100 to 500 | < 100 |
| COc1cccc(CCCOCCC(=O)N[C@H]2CC(=O)N3CCCC(CCOc4ccc(C)c(c4)CNC(=O)[C@H](CCc4ccccc4)NC2=O)C3)c1 (stereo partly drawn) [Compound 607, 3-(3-(3-methoxyphenyl)propoxy)-N-((9S,12S)-5^4-methyl-8,11,14-trioxo-9-phenethyl-4-oxa-7,10-diaza-1(3,1)-piperidina-5(1,3)-benzenacyclotetradecaphane-12-yl)propanamide] | < 100 | < 100 | < 100 | < 100 | < 100 | < 100 |
